What was measured:
r(CUG)12-MBNL1 complex = test: Inhibition of the r(CUG)12-MBNL1 complex measured by TR-FRET; assay type: biochemical; details: 80 nM RNA, 60 nM MBNL1-His6
[1] = system: MBNL1 exon 5 inclusion in DM1 myotubes; test: Myotube splicing rescue assay (MBNL1 exon 5 inclusion); assay type: cell-based, human; details: 48-hour incubation

| Structure (SMILES) | IC50 (r(CUG)12-MBNL1 complex; Table L) | MBNL1 % splicing rescue at 10 μM [1] | MBNL1 % splicing rescue at 1 μM [1] | IC50 (r(CUG)12-MBNL1 complex; Table M) |
| --- | --- | --- | --- | --- |
| CN(C)CCNC(=O)c1ccc2nc(-c3ccc(-c4nc5ccc(C(=O)NCCN(C)C)cc5[nH]4)cc3)[nH]c2c1 [Compound 16, 2,2′-(1,4-phenylene)bis(N-(2-(dimethylamino)ethyl)-1H-benzo[d]imidazole-6-carboxamide)] | 6.2 µM | −4.3% |  |  |
| CCN(CC)CCNC(=O)c1ccc2nc(-c3ccc(-c4nc5ccc(C(=O)NCCN(CC)CC)cc5[nH]4)cc3)[nH]c2c1 [Compound 33] | 8.1 µM | 16.4% |  |  |
| CC(C)N(CCNC(=O)c1ccc2nc(-c3ccc(-c4nc5ccc(C(=O)NCCN(C(C)C)C(C)C)cc5[nH]4)cc3)[nH]c2c1)C(C)C [Compound 34] | 14.5 µM |  | 20.8% |  |
| N=C(N)NCCNC(=O)c1ccc2nc(-c3ccc(-c4nc5ccc(C(=O)NCCNC(=N)N)cc5[nH]4)cc3)[nH]c2c1 [Compound 38] | 2.6 µM | 0.0% |  |  |
| O=C(NCCN1CCCCC1)c1ccc2nc(-c3ccc(-c4nc5ccc(C(=O)NCCN6CCCCC6)cc5[nH]4)cc3)[nH]c2c1 [Compound 41, 2,2′-(1,4-phenylene)bis(N-(2-(piperidin-1-yl)ethyl)-1H-benzo[d]imidazole-6-carboxamide)] | 6.6 µM | 59.1% | 43.7% |  |
| CN1CCN(CCNC(=O)c2ccc3nc(-c4ccc(-c5nc6ccc(C(=O)NCCN7CCCCC7)cc6[nH]5)cc4)[nH]c3c2)CC1 [Compound 44, N-(2-(4-methylpiperazin-1-yl)ethyl)-2-(4-(6-((2-(piperidin-1-yl)ethyl)carbamoyl)-1H-benzo[d]imidazol-2-yl)phenyl)-1H-benzo[d]imidazole-6-carboxamide] | 11.9 µM | 16.4% | 6.1% |  |
| O=C(NCCN1CCNCC1)c1ccc2nc(-c3ccc(-c4nc5ccc(C(=O)NCCN6CCNCC6)cc5[nH]4)cc3)[nH]c2c1 [Compound 47, 2,2′-(1,4-phenylene)bis(N-(2-(piperazin-1-yl)ethyl)-1H-benzo[d]imidazole-6-carboxamide)] | 6.8 µM | 12.8% |  |  |
| C[N+](C)(C)CCOC(=O)c1ccc2nc(-c3ccc(-c4nc5ccc(C(=O)OCC[N+](C)(C)C)cc5[nH]4)cc3)[nH]c2c1 [Compound 55, 2,2′-((2,2′-(1,4-phenylene)bis(1H-benzo[d]imidazole-6,6′-carbonyl))bis(oxy))bis(N,N,N-trimethylethanaminium) chloride] | 4.2 µM | 12.0% |  |  |
| CN(C)CCSc1ccc2nc(-c3ccc(-c4nc5ccc(SCCN(C)C)cc5[nH]4)cc3)[nH]c2c1 [Compound 59, 2,2′-((2,2′-(1,4-phenylene)bis(1H-benzo[d]imidazole-6,2-diyl))bis(sulfanediyl))bis(N,N-dimethylethanamine)] | 10.8 µM | −17.6% |  |  |
| N=C(N)NCCC(=O)Nc1ccc2nc(-c3ccc(-c4nc5ccc(NC(=O)CCNC(=N)N)cc5[nH]4)cc3)[nH]c2c1 [Compound 65] | 3.6 µM |  | 31.7% |  |
| c1cc2nc(-c3ccc(-c4nc5ccc(NC6=NCCN6C6=NCCN6)cc5[nH]4)cc3)[nH]c2cc1NC1=NCCN1C1=NCCN1 [Compound 77] | 10.8 µM | 4.2% |  |  |
| CCN(CC)CCNC(=O)c1ccc(-c2nc3cc(-c4ccc5[nH]c(-c6ccc(C(=O)NCCN(CC)CC)cc6)nc5c4)ccc3[nH]2)cc1 [Compound 112] | 5 µM | 66.5% |  |  |
| CC(C)N(CCNC(=O)c1ccc(-c2nc3cc(-c4ccc5[nH]c(-c6ccc(C(=O)NCCN(C(C)C)C(C)C)cc6)nc5c4)ccc3[nH]2)cc1)C(C)C [Compound 113] | 12.6 µM | 45.3% | 7.9% |  |
| O=C(NCCN1CCCC1)c1ccc(-c2nc3cc(-c4ccc5[nH]c(-c6ccc(C(=O)NCCN7CCCC7)cc6)nc5c4)ccc3[nH]2)cc1 [Compound 115] | 7.1 µM | 57.5% |  |  |
| O=C(NCCN1CCCCC1)c1ccc(-c2nc3cc(-c4ccc5[nH]c(-c6ccc(C(=O)NCCN7CCCCC7)cc6)nc5c4)ccc3[nH]2)cc1 [Compound 116] | 5.3 µM | 74.7% |  |  |
| O=C(NCCN1CCCCC1)c1ccc2nc(-c3ccc(-c4nc5ccc(C(=O)NCCN6CCNCC6)cc5[nH]4)cc3)[nH]c2c1 [Compound 126, N-(2-(piperazin-1-yl)ethyl)-2-(4-(6-((2-(piperidin-1-yl)ethyl)carbamoyl)-1H-benzo[d]imidazol-2-yl)phenyl)-1H-benzo[d]imidazole-6-carboxamide] | 9.5 µM | 29.6% | 16.6% |  |
| O=C(NCCN1CCC(O)CC1)c1ccc2[nH]c(-c3ccc(-c4nc5ccc(C(=O)NCCN6CCC(O)CC6)cc5[nH]4)cc3)nc2c1 [Compound 146] | 15.8 µM | 7.1% | 0.8% |  |
| CN(C)CCNC(=O)c1ccc2nc(-c3ccc(-c4nc5ccc(NC6=NCCN6C6=NCCN6)cc5[nH]4)cc3)[nH]c2c1 [Compound 148] | 7.4 µM | 1.7% |  |  |

| Structure (SMILES) | IC50 (r(CUG)12-MBNL1 complex; Table L) | MBNL1 % splicing rescue at 10 μM [1] | MBNL1 % splicing rescue at 1 μM [1] | IC50 (r(CUG)12-MBNL1 complex; Table M) |
| --- | --- | --- | --- | --- |
| CN(C)CCNC(=O)c1ccc2nc(-c3ccc(-c4nc5ccc(NC6=NCCN6)cc5[nH]4)cc3)[nH]c2c1 [Compound 149] | 6.1 µM | −1.1% |  |  |
| c1cc(-c2nc3ccc(N4CCNCC4)cc3[nH]2)ccc1-c1nc2ccc(N3CCNCC3)cc2[nH]1 [Compound 150] | 29.6 µM | 41.0% |  |  |
| Nc1ccc(-c2nc3cc(-c4ccc5[nH]c(-c6ccc(NC7=NCCN7C7=NCCN7)cc6)nc5c4)ccc3[nH]2)cc1 [Compound 160] | 19.2 µM | 63.0% |  |  |
| CN(C)CCCOc1ccc2nc(-c3ccc(-c4ccc(-c5nc6ccc(OCCCN(C)C)cc6[nH]5)cc4)cc3)[nH]c2c1 [Compound 170] |  | 85.5% | 24.6% | 6.14 µM |
| CN(C)CCCOc1ccc2nc(-c3ccc(-c4nc5ccc(NC6=NCCN6C6=NCCN6)cc5[nH]4)cc3)[nH]c2c1 [Compound 171] |  | 7.8% | 11.5% | 9.66 µM |
| [N-]=[N+]=NCCN1CCN(CCNC(=O)c2ccc3nc(-c4ccc(-c5nc6ccc(C(=O)NCCN7CCCCC7)cc6[nH]5)cc4)[nH]c3c2)CC1 [Compound 172, N-(2-(4-(2-azidoethyl)piperazin-1-yl)ethyl)-2-(4-(6-((2-(piperidin-1-yl)ethyl)carbamoyl)-1H-benzo[d]imidazol-2-yl)phenyl)-1H-benzo[d]imidazole-6-carboxamide] |  | 14.2% | 22.1% | 28.3 µM |
| O=C(NCCN1CCCCC1)c1ccc2nc(-c3ccc(-c4nc5ccc(C(=O)NCCN6CCCCC6)cc5[nH]4)c([N+](=O)[O-])c3)[nH]c2c1 [Compound 173, 2,2′-(2-nitro-1,4-phenylene)bis(N-(2-(piperidin-1-yl)ethyl)-1H-benzo[d]imidazole-6-carboxamide)] |  | 23.1% | 1.5% | 22 µM |
| O=C(NCCN1CCCCC1)c1ccc2nc(-c3ccc(-c4nc5ccc(C(=O)NCCN6CCCCC6)cc5[nH]4)c(F)c3)[nH]c2c1 [Compound 174] |  | 1.9% | 5.2% | 4.32 µM |
| Nc1cc(-c2nc3ccc(C(=O)NCCN4CCCCC4)cc3[nH]2)ccc1-c1nc2ccc(C(=O)NCCN3CCCCC3)cc2[nH]1 [Compound 176, 2,2′-(2-amino-1,4-phenylene)bis(N-(2-(piperidin-1-yl)ethyl)-1H-benzo[d]imidazole-6-carboxamide)] |  | −5.0% |  | 5.52 µM |
| NCCN1CCN(CCNC(=O)c2ccc3nc(-c4ccc(-c5nc6ccc(C(=O)NCCN7CCCCC7)cc6[nH]5)cc4)[nH]c3c2)CC1 [Compound 185, N-(2-(4-(2-aminoethyl)piperazin-1-yl)ethyl)-2-(4-(6-((2-(piperidin-1-yl)ethyl)carbamoyl)-1H-benzo[d]imidazol-2-yl)phenyl)-1H-benzo[d]imidazole-6-carboxamide] |  | 39.2% |  | 8.13 µM |
| CN(C)CCCCCOc1ccc2nc(-c3ccc(-c4nc5ccc(OCCCCCN(C)C)cc5[nH]4)cc3)[nH]c2c1 [Compound 192] |  | 111.7% |  | 12.9 µM |
| NCCCOc1ccc2nc(-c3ccc(-c4nc5ccc(OCCCN)cc5[nH]4)cc3)[nH]c2c1 [Compound 201, 3,3′-((1,4-phenylenebis(1H-benzo[d]imidazole-2,6-diyl))bis(oxy))bis(propan-1-amine)] |  | −13.2% |  | 16.4 µM |
| CN(C)CCCS(=O)(=O)c1ccc2[nH]c(-c3ccc(-c4nc5cc(S(=O)(=O)CCCN(C)C)ccc5[nH]4)cc3)nc2c1 [Compound 202, 3,3′-(2,2′-(1,4-phenylene)bis(1H-benzo[d]imidazole-6,6′-sulfonyl))bis(N,N-dimethylpropan-1-amine)] |  | 34.0% |  | 42 µM |
| CN(C)CCCOc1ccc2nc(-c3ccc(-c4nc5ccc(OCCCN)cc5[nH]4)cc3)[nH]c2c1 [Compound 205, 3-((2-(4-(6-(3-aminopropoxy)-1H-benzo[d]imidazol-2-yl)phenyl)-1H-benzo[d]imidazol-6-yl)oxy)-N,N-dimethylpropan-1-amine] |  | −48.4% |  | 27.3 µM |
| CN(C)CCCCCCOc1ccc2nc(-c3ccc(-c4nc5ccc(OCCCCCCN(C)C)cc5[nH]4)cc3)[nH]c2c1 [Compound 212] |  | 77.0% |  | 5.3 µM |
| CN(C)CCc1cn(-c2ccc3nc(-c4ccc(-c5nc6ccc(-n7cc(CCN(C)C)nn7)cc6[nH]5)cc4)[nH]c3c2)nn1 [Compound 221] |  | −2.5% |  | 2.53 µM |
| CN(C)CCNC(=O)c1ccc2nc(-c3ccc4cc(-c5nc6ccc(C(=O)NCCN(C)C)cc6[nH]5)ccc4c3)[nH]c2c1 [Compound 462] |  | −2.7% |  |  |
